Results on one compound are retold here after BindingDB's records for doi:10.1016/0960-894X(95)00040-Z (1995).

The experiment can be described thus: Compound was tested for inhibitory activity against prostaglandin synthetase in mouse brain microsomes.

Consider `C1=C(CCN2CCOCC2)c2ccccc2/C1=C/c1ccccc1` [4-(2-{3-[1-Phenyl-meth-(E)-ylidene]-3H-inden-1-yl}-ethyl)-morpholine], for which half-maximal inhibition (IC50) was put at 20 µM.
